Several values for one entry are separate records, joined by “and”; a condition that tells them apart may be missing. Equal values may be shown once.
Key:
[1] = RNA encapsulation efficiency of LNPs by Quant-IT Ribogreen; format: physicochemical; conditions: for Encaps. efficiency (%): LNPs with luciferase mRNA, ionizable lipid:non-cationic lipid:sterol:PEG-modified lipid 50:10:38.5:1.5, percentage of RNA entrapped in the LNP
Procedure: The mRNA aqueous solution was then carefully added to the ethanol solution, and the resulted solution was homogenized by pipetting up and down for 4-5 times. The resulting LNPs were immediately diluted 1:1 with Tris buffer and dialyzed overnight against Tris buffer containing 15% sucrose. The resulting LNP solution was then collected, and the encapsulated mRNA was assessed by Quant-IT® Ribogreen (Invitrogen R11490) following the manufacturer's instructions.
(§1) The LNP solution was then adjusted to a final concentration of mRNA of 100 µg/ml. Size distribution, polydispersity and Z-potential were measured by dynamic light scattering (DLS) using Malvern Zetasizer Advance Lab Blue Label. RNA encapsulation was assessed by Quant-IT® Ribogreen following the manufacturer's instructions.

[2] = Size distribution, polydispersity and Z-potential of LNPs by dynamic light scattering (Malvern Zetasizer); format: physicochemical; conditions: LNPs, standard formulation 50:10:38.5:1.5; DLS
Procedure: as §1

[3] = Apparent pKa of LNPs comprising the ionizable lipid (Table 6); conditions: standard formulation 50:10:38.5:1.5

Structure (SMILES)	Encaps. efficiency (%) [1] [%]	P.D.I. [2]	Particle size/ Ø (nm) [2] [nm]	Z Potential (± D.E.) [mV] [2] [mV]	Apparent pKa [3]	Encaps. efficiency ([1]; Table 8, LNP 50:10:38.5:1.5, luciferase mRNA)
CCCC#CCCOC(=O)CCSCCC(NC(=O)C(CCCCCC)CCCCCCCC)C(=O)NC1CCN(C)CC1 (centres unmarked) [VC-LC-0432]	46.27	0.29	126.9	-16.42	6.44	–
CCCCCCCCCCCCCCCCOC(=O)CCSCCC(NC(=O)C(CCCCCC)CCCCCCCC)C(=O)NCCN1CCN(C)CC1 (centres unmarked) [VC-LC-0185]	70.97	–	–	-1.54	5.85	–
CCCCCCCCCCCCCCCCOC(=O)CCSCCC(NC(=O)C(CCCCCC)CCCCCCCC)C(=O)NCCCN1CCCC1 (centres unmarked) [VC-LC-0248]	89.76	0.35	248	4.52	7.24	–
CCCCCCCCCCCCC(CCCCCCCCCC)COC(=O)CCSCCC(NC(=O)C(CCCCCC)CCCCCCCC)C(=O)NCCN1CCOCC1 (centres unmarked) [VC-LC-0407]	60.22	0.1	167.1	-12.36	4.66	–
CCCCCCCCCCCCC(CCCCCCCCCC)COC(=O)CCSCCC(NC(=O)C(CCCCCC)CCCCCCCC)C(=O)NC1CCN(C)CC1 (centres unmarked) [VC-LC-0428]	65.37	0.11	185.3	-8.34	5.84	–
CCCCCCCC/C=C\CCCCCCCC(=O)NC(CCSCCC(=O)OCCCCCCCC(C)C)C(=O)NCCCN(CCO)CCO (centres unmarked) [VC-LC-0292]	94.63	0.18	177.7	7.79	7.06	–
CCCCCCCC#CCOC(=O)CCSCCC(NC(=O)C(CCCCCC)CCCCCCCC)C(=O)NCCN1CCOCC1 (centres unmarked) [VC-LC-0408]	41.23	0.25	168.1	-15.07	4.83	–
CCCCCCCC#CCOC(=O)CCSCCC(NC(=O)CCCCCCCCCCCCCCCCC)C(=O)NCCCN1CCOCC1 (centres unmarked) [VC-LC-0390]	83.80	0.24	192.8	-1.14	6.10	–
CCCCCCCCCCCCCOC(=O)CCSCCC(NC(=O)C(CCCCCC)CCCCCCCC)C(=O)NCCN1CCOCC1 (centres unmarked) [VC-LC-0392]	40.58	0.19	136.1	-11.14	4.72	–
CCCCCCCCCCCCCOC(=O)CCSCCC(NC(=O)C(CCCCCC)CCCCCCCC)C(=O)NCCCn1ccnc1 (centres unmarked) [VC-LC-0256]	92.30	0.12	184.3	-15.91	5.91	–
CCCCCCCC/C=C\CCCCCCCCOC(=O)CCSCCC(NC(=O)C(CCCCCC)CCCCCCCC)C(=O)NCCCN1CCOCC1 (centres unmarked) [VC-LC-0361]	41.05	0.18	169.3	-12.18	5.29	–

Further lines, results first:

Encaps. efficiency (%) [1] [%]	P.D.I. [2]	Particle size/ Ø (nm) [2] [nm]	Z Potential (± D.E.) [mV] [2] [mV]	Apparent pKa [3]	Encaps. efficiency ([1]; Table 8, LNP 50:10:38.5:1.5, luciferase mRNA)	Structure (SMILES)
59.89	0.18	151	-5.11	6.67	59.9% and 95.6%	CCCCCCCCC(CCCCCC)COC(=O)CCSCC(CC(=O)NC1CCN(C)CC1)C(=O)OCC(CCCCCC)CCCCCCCC (centres unmarked) [VC-LC-0525]
65.25	0.14	138.8	-5.71	6.40	–	CCCCCCCCCCC(CCCCCCCC)C(=O)NC(CCSCCC(=O)OCC(CC)CCCC)C(=O)NC1CCN(C)CC1 (centres unmarked) [VC-LC-0559]
95.57	0.17	169.3	5.29	7.32	–	CCCCCCCC/C=C\CCCCCCCCOC(=O)CCSCCC(NC(=O)C(CCCCCCCC)CCCCCCCCCC)C(=O)NCC1CCN(C)CC1 (centres unmarked) [VC-LC-0523]
96.86	0.16	153.4	5.13	8.25	–	CCCCCCCC#CCOC(=O)CCSCC(CC(=O)NC1CCN(C)CC1)C(=O)OCC(CCCCCC)CCCCCCCC (centres unmarked) [VC-LC-0538]
31.75	0.14	155.7	-10.98	6.61	–	CCCCCCCCC(CCCCCCCC)OC(=O)C(CSCCC(=O)OCC(CC)CCCC)CC(=O)NCCCN1CCOCC1 (centres unmarked) [VC-LC-0543]
49.38	0.17	148.0	-11.81	5.89	–	CCCCCCCCC(CCCCCC)COC(=O)C(CCSCCC(=O)OCCCCCCCC(C)C)C(=O)NCCCN1CCOCC1 (centres unmarked) [VC-LC-0607]
98.62	0.23	170.1	0.25	7.60	–	CCCCCCCCCCC(CCCCCCCC)C(=O)NC(CCSCCC(=O)OCCCCCCCC(C)C)C(=O)NCC1CCN(C)CC1 (centres unmarked) [VC-LC-0509]
33.76	0.14	156.3	-10.60	6.43	–	CCCCCCCCC(CCCCCCCC)OC(=O)C(CSCCC(=O)OCCCCCCCC(C)C)CC(=O)NCCCN1CCOCC1 (centres unmarked) [VC-LC-0542]
38.50	0.12	150.3	-6.62	5.54	–	CCCCCCCC/C=C\CCCCCCCCOC(=O)CCSCCC(NC(=O)C(CCCCCCCC)CCCCCCCCCC)C(=O)NCCCN1CCOCC1 (centres unmarked) [VC-LC-0587]
55.25	0.13	149.0	-3.35	6.57	–	CCCCCCCCCCC(CCCCCCCC)C(=O)NC(CCSCCC(=O)OCCCCCC)C(=O)NC1CCN(C)CC1 (centres unmarked) [VC-LC-0566]
48.02	–	–	-10.64	5.82	–	CCCCCCCCCCCCCCCCOC(=O)CCSCCC(C(=O)NC1CCN(C)CC1)C(=O)OC(CCCCCCCC)CCCCCCCC (centres unmarked) [VC-LC-0445]
36.86	0.12	140.3	-11.02	6.53	–	CCCCCCCCCCCCOC(=O)CCSCC(CC(=O)NCCCN1CCOCC1)C(=O)OC(CCCCCCCC)CCCCCCCC (centres unmarked) [VC-LC-0544]
62.45	0.16	149.1	-4.15	6.79	–	CCCCCCCC#CCOC(=O)CCSCCC(NC(=O)C(CCCCCC)CCCCCCCC)C(=O)NCCN(CC)CC (centres unmarked) [VC-LC-0488]
51.46	0.18	168.0	-9.73	5.64	–	CCCCCCCCC(CCCCCC)COC(=O)CCSCCC(C(=O)NCCCN1CCOCC1)C(=O)OCC(CCCCCC)CCCCCCCC (centres unmarked) [VC-LC-0606]

Source: patent publication EP4371976B1, “IONIZABLE LIPIDS AND LIPID NANOPARTICLES CONTAINING THEREOF” (Certest Biotec, S.L., priority 2022, dated 2024)
